The record followed here is patent publication US20250235543A1, “MODIFIED PROTEINS AND PROTEIN DEGRADERS” (Cullgen (Shanghai), Inc., priority 2021, published 2025).

Like-named read-outs stand apart in the source and are kept apart here.

In one assay the target is T1, CDK4 (Homo sapiens, UniProt P11802).
T1 construct: endogenous in cells; host or cells: Calu-1
Description: CDK4 percentage degradation in Calu-1 cells (immunoblotting). It counts as cell-based. As to conditions: for inhibition at 0.2 µM: read-out: CDK4 Degradation (200 nM); for inhibition at 10 µM: read-out: CDK4 Degradation (10 μM). A digest of the protocol:
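CDK4 degradation was measured by immunoblotting. Cells were washed in cold PBS and lysed in RIPA buffer with inhibitors for 30 min at 4° C., then spun at 13,000 rpm to clear. After BCA protein determination, lysates were heated at 99° C. for 5 min in Laemmli buffer, resolved on SDS-PAGE, imaged on a ChemiDoc MP with ECL substrate, and band intensities quantified.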
On the technique in general: In western blotting, separated proteins are transferred to a membrane and probed.

The subject of the next assay is cyclin D1. Description: Cyclin D1 percentage degradation in Calu-1 cells (immunoblotting). Type of assay: cell-based. As to conditions: 16 hours. A digest of the protocol: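 Cyclin D1 degradation was assessed by western blot. Clarified lysates, obtained by RIPA lysis with inhibitors and centrifugation at 13,000 rpm, were normalized by BCA protein assay and separated by SDS-PAGE. Bands were detected with Western ECL Substrate on a Bio-Rad ChemiDoc MP Imaging system and quantified in Image Lab software to derive percentage degradation.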

T1 sequence (P11802 2-303 limits assumed): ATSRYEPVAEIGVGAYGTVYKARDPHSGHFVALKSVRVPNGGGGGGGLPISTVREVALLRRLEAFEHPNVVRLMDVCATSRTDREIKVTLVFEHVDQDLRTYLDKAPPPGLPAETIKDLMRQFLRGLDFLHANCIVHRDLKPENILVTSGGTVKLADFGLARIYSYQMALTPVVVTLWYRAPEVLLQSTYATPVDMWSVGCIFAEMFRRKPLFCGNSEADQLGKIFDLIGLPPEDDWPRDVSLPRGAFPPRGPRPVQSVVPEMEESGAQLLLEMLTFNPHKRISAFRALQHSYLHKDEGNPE
T1 sequence (P24385 whole entry partner): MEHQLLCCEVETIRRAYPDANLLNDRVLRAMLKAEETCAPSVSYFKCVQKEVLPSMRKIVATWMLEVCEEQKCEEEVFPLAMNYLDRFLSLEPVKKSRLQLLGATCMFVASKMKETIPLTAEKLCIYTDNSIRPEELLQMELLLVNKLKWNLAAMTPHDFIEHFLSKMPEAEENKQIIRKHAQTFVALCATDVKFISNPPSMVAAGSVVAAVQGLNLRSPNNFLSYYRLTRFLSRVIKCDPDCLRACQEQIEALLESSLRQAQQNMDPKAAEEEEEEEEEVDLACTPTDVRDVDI
T1 sequence (Q16531 2-1140 limits assumed, further chain): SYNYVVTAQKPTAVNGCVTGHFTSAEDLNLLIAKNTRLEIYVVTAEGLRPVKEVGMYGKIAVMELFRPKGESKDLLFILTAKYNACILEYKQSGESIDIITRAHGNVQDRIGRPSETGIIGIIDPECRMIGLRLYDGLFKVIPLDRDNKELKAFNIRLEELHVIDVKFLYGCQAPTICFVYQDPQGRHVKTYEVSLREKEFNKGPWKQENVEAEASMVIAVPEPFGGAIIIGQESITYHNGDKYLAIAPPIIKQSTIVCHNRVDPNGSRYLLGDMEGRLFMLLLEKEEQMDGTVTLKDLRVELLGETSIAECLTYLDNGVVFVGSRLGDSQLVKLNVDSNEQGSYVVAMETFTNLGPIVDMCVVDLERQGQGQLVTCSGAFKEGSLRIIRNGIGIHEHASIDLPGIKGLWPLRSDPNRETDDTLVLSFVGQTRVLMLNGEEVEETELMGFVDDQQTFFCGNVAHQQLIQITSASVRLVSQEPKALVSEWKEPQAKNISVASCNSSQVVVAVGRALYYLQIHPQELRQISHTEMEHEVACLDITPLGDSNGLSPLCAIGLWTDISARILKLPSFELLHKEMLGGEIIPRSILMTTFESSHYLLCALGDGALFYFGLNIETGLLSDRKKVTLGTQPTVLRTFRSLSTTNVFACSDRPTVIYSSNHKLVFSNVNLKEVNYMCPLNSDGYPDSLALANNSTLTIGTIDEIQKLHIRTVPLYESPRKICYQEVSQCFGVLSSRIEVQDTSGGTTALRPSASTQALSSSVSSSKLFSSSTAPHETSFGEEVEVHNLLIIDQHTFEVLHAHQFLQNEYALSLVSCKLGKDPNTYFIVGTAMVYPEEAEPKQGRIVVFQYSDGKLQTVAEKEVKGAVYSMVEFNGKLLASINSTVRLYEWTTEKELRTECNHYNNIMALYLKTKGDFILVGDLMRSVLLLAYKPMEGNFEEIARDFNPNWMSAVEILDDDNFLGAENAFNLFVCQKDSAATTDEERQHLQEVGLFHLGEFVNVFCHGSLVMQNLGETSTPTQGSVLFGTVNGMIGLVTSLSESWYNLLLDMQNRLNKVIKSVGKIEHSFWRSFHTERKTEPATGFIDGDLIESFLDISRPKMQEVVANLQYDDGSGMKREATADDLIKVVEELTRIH

`CC(=O)c1c(C)c2cnc(Nc3ccc(N4CCN(CC(=O)NCCOCCOCCC(=O)Nc5ccccc5C(=O)Nc5nc(C6CCNCC6)c(C)s5)CC4)cn3)nc2n(C2CCCC2)c1=O` [CPD-072, 2-(3-(2-(2-(2-(4-(6-((6-Acetyl-8-cyclopentyl-5-methyl-7-oxo-7,8-dihydropyrido[2,3-d]pyrimidin-2-yl)amino)pyridin-3-yl)piperazin-1-yl)acetamido)ethoxy)ethoxy)propanamido)-N-(5-methyl-4-(piperidin-4-yl)thiazol-2-yl)benzamide]: the inhibition at 0.2 µM at CDK4 (Calu-1 cells, 200 nM, 16 hours) was in the range of 50 to 80%. In addition, in the assay on cyclin D1, the “CyclinD1 Degradation (200 nM)” value was “D (protein percentage degradation <30%)”.

On to `CC(=O)c1c(C)c2cnc(Nc3ccc(N4CCN(C(=O)CCCCCC(=O)Nc5ccccc5C(=O)Nc5nc(C)c(C)s5)CC4)cn3)nc2n(C2CCCC2)c1=O` [CPD-157, 2-(7-(4-(6-((6-Acetyl-8-cyclopentyl-5-methyl-7-oxo-7,8-dihydropyrido[2,3-d]pyrimidin-2-yl)amino)pyridin-3-yl)piperazin-1-yl)-7-oxoheptanamido)-N-(4,5-dimethylthiazol-2-yl)benzamide], for which the inhibition at 0.2 µM on CDK4 (Calu-1, 16 h) was under 30%. In the assay on cyclin D1, the “CyclinD1 Degradation (200 nM)” value is “D (protein percentage degradation <30%)”.

As to `CC(=O)c1c(C)c2cnc(Nc3ccc(N4CCN(CC(=O)NCCCCCCCCNc5cccc(C(=O)Nc6nc(C)c(C)s6)c5C)CC4)cn3)nc2n(C2CCCC2)c1=O` [CPD-090, 3-((8-(2-(4-(6-((6-Acetyl-8-cyclopentyl-5-methyl-7-oxo-7,8-dihydropyrido[2,3-d]pyrimidin-2-yl)amino)pyridin-3-yl)piperazin-1-yl)acetamido)octyl)amino)-N-(4,5-dimethylthiazol-2-yl)-2-methylbenzamide], at CDK4 (Calu-1 cells, 200 nM, 16 hours), the inhibition at 0.2 µM lay within 50 to 80%. In the assay on cyclin D1, the “CyclinD1 Degradation (200 nM)” value is given as “A (protein percentage degradation >=80%)”.

As to `CC(=O)c1c(C)c2cnc(Nc3ccc(N4CCN(C(=O)CCOCCOCCOCCOCCOCCOCCNc5ccc(C)c(C(=O)Nc6nc(C)c(C)s6)c5)CC4)cn3)nc2n(C2CCCC2)c1=O` [CPD-131, 5-((21-(4-(6-((6-Acetyl-8-cyclopentyl-5-methyl-7-oxo-7,8-dihydropyrido[2,3-d]pyrimidin-2-yl)amino)pyridin-3-yl)piperazin-1-yl)-21-oxo-3,6,9,12,15,18-hexaoxahenicosyl)amino)-N-(4,5-dimethylthiazol-2-yl)-2-methylbenzamide], at CDK4 (Calu-1, 16 h), the inhibition at 0.2 µM was under 30%. In addition, in the assay on cyclin D1, the “CyclinD1 Degradation (200 nM)” value is listed as “D (protein percentage degradation <30%)”.

On to `COc1ccc(NC(=O)c2cccc(NCCOCCOCCNC(=O)CN3CCN(c4ccc(Nc5ncc6c(C)c(C(C)=O)c(=O)n(C7CCCC7)c6n5)nc4)CC3)c2C)nn1` [CPD-341, 3-((2-(2-(2-(2-(4-(6-((6-Acetyl-8-cyclopentyl-5-methyl-7-oxo-7,8-dihydropyrido[2,3-d]pyrimidin-2-yl)amino)pyridin-3-yl)piperazin-1-yl)acetamido)ethoxy)ethoxy)ethyl)amino)-N-(6-methoxypyridazin-3-yl)-2-methylbenzamide], for which the inhibition at 0.2 µM on CDK4 (Calu-1 cells, 200 nM, 16 hours) is under 30%. Besides, in the assay on cyclin D1, the “CyclinD1 Degradation (200 nM)” value is recorded as “D (protein percentage degradation <30%)”.

In the case of `CC(=O)c1c(C)c2cnc(Nc3ccc(N4CCN(C(=O)CCOCCOCCOCCOCCC(=O)Nc5ccccc5C(=O)Nc5nc(C)c(C)s5)CC4)cn3)nc2n(C2CCCC2)c1=O` [CPD-176, 16-(4-(6-((6-Acetyl-8-cyclopentyl-5-methyl-7-oxo-7,8-dihydropyrido[2,3-d]pyrimidin-2-yl)amino)pyridin-3-yl)piperazin-1-yl)-N-(2-((4,5-dimethylthiazol-2-yl)carbamoyl)phenyl)-16-oxo-4,7,10,13-tetraoxahexadecanamide], the inhibition at 0.2 µM at CDK4 (Calu-1, 16 h) is over 80%. Besides, the “CyclinD1 Degradation (200 nM)” value in the assay with cyclin D1 was “A (protein percentage degradation >=80%)”.

With `CC(=O)c1c(C)c2cnc(Nc3ccc(N4CCN(CC(=O)NCCOCCOCCC(=O)Nc5ccccc5C(=O)Nc5nc(C(C)C)c(C)s5)CC4)cn3)nc2n(C2CCCC2)c1=O` [CPD-070, 2-(3-(2-(2-(2-(4-(6-((6-Acetyl-8-cyclopentyl-5-methyl-7-oxo-7,8-dihydropyrido[2,3-d]pyrimidin-2-yl)amino)pyridin-3-yl)piperazin-1-yl)acetamido)ethoxy)ethoxy)propanamido)-N-(4-isopropyl-5-methylthiazol-2-yl)benzamide], the inhibition at 0.2 µM at CDK4 (Calu-1 cells, 200 nM, 16 hours) is over 80%. In the assay with cyclin D1, the “CyclinD1 Degradation (200 nM)” value is “A (protein percentage degradation >=80%)”.

For `CC(=O)c1c(C)c2cnc(Nc3ccc(N4CCN(CC(=O)NCCCCCCCNC(=O)COc5ccc(C(=O)Nc6ncc(C)s6)c(C)c5)CC4)cn3)nc2n(C2CCCC2)c1=O` [CPD-037, 4-(2-((7-(2-(4-(6-((6-Acetyl-8-cyclopentyl-5-methyl-7-oxo-7,8-dihydropyrido[2,3-d]pyrimidin-2-yl)amino)pyridin-3-yl)piperazin-1-yl)acetamido)heptyl)amino)-2-oxoethoxy)-2-methyl-N-(5-methylthiazol-2-yl)benzamide], the inhibition at 0.2 µM on CDK4 (Calu-1 cells, 200 nM, 16 hours) was under 30%. Further, the “CyclinD1 Degradation (200 nM)” value in the assay with cyclin D1 is “D (protein percentage degradation <30%)”.

Consider `CNC(=O)c1ccc(C)nc1NCCCCCCCNC(=O)CN1CCN(c2ccc(Nc3ncc4c(C)c(C(C)=O)c(=O)n(C5CCCC5)c4n3)nc2)CC1` [CPD-340], for which the inhibition at 0.2 µM at CDK4 (Calu-1 cells, 200 nM, 16 hours) was under 30%. For the same compound, in the assay on cyclin D1, the “CyclinD1 Degradation (200 nM)” value is recorded as “D (protein percentage degradation <30%)”.

Regarding `Cc1nc(NC(=O)c2ccccc2NC(=O)CCCCCCNC(=O)CN2CCN(c3ccc(Nc4ncc5cc6n(c5n4)C4(CCCCC4)CNC6=O)nc3)CC2)sc1C` [CPD-319, N-(4,5-Dimethylthiazol-2-yl)-2-(7-(2-(4-(6-((6′-oxo-7′,8′-dihydro-6′H-spiro[cyclohexane-1,9′-pyrazino[1′,2′:1,5]pyrrolo[2,3-d]pyrimidin]-2′-yl)amino)pyridin-3-yl)piperazin-1-yl)acetamido)heptanamido)benzamide], the inhibition at 10 µM on CDK4 (Calu-1 cells, 16 hours) fell in the range of 50 to 80%. In the assay on cyclin D1, the “CyclinD1 Degradation (10 μM)” value is listed as “A (protein percentage degradation >= 80%)”.

In the case of `CC(=O)c1c(C)c2cnc(Nc3ccc(N4CCN(C(=O)CCOCCOCCNc5cccc(C(=O)Nc6nc(C)c(C)s6)c5C)CC4)cn3)nc2n(C2CCCC2)c1=O` [CPD-121, 3-((2-(2-(3-(4-(6-((6-Acetyl-8-cyclopentyl-5-methyl-7-oxo-7,8-dihydropyrido[2,3-d]pyrimidin-2-yl)amino)pyridin-3-yl)piperazin-1-yl)-3-oxopropoxy)ethoxy)ethyl)amino)-N-(4,5-dimethylthiazol-2-yl)-2-methylbenzamide], the inhibition at 0.2 µM at CDK4 (Calu-1 cells, 200 nM, 16 hours) was in the range of 30 to 50%. For the same compound, in the assay on cyclin D1, the “CyclinD1 Degradation (200 nM)” value is “C (protein percentage degradation <50%, and >=30%)”.

Turning to `Cc1nc(NC(=O)c2ccccc2NC(=O)CCCCCCCNC(=O)CN2CCN(c3ccc(Nc4ncc5cc(C(=O)N(C)C)n(C6CCCC6)c5n4)nc3)CC2)sc1C` [CPD-292, 7-Cyclopentyl-2-((5-(4-(2-((8-((2-((4,5-dimethylthiazol-2-yl)carbamoyl)phenyl)amino)-8-oxooctyl)amino)-2-oxoethyl)piperazin-1-yl)pyridin-2-yl)amino)-N,N-dimethyl-7H-pyrrolo[2,3-d]pyrimidine-6-carboxamide], the inhibition at 10 µM at CDK4 (Calu-1 cells, 16 hours) was under 30%. Also, in the assay on cyclin D1, the “CyclinD1 Degradation (10 μM)” value was “B (protein percentage degradation < 80%, and >= 50%)”.

Consider `Cc1nc(NC(=O)c2ccccc2NC(=O)CCOCCOCCOCCOCCOCCOCCNC(=O)CN2CCN(c3ccc(Nc4ncc5cc(C(=O)N(C)C)n(C6CCCC6)c5n4)nc3)CC2)sc1C` [CPD-299, 7-Cyclopentyl-2-((5-(4-(24-((2-((4,5-dimethylthiazol-2-yl)carbamoyl)phenyl)amino)-2,24-dioxo-6,9,12,15,18,21-hexaoxa-3-azatetracosyl)piperazin-1-yl)pyridin-2-yl)amino)-N,N-dimethyl-7H-pyrrolo[2,3-d]pyrimidine-6-carboxamide], for which the inhibition at 10 µM at CDK4 (Calu-1 cells, 16 hours) was in the range of 30 to 50%. Moreover, in the assay on cyclin D1, the “CyclinD1 Degradation (10 μM)” value was “B (protein percentage degradation < 80%, and >= 50%)”.

As to `CC(=O)c1c(C)c2cnc(Nc3ccc(N4CCN(CC(=O)NCCOCCOCCOCCOCCOCCNc5ccc(CNc6nc(C)c(C)s6)c(C)c5)CC4)cn3)nc2n(C2CCCC2)c1=O` [CPD-166, 2-(4-(6-((6-Acetyl-8-cyclopentyl-5-methyl-7-oxo-7,8-dihydropyrido[2,3-d]pyrimidin-2-yl)amino)pyridin-3-yl)piperazin-1-yl)-N-(17-((4-(((4,5-dimethylthiazol-2-yl)amino)methyl)-3-methylphenyl)amino)-3,6,9,12,15-pentaoxaheptadecyl)acetamide], the inhibition at 0.2 µM on CDK4 (Calu-1 cells, 200 nM, 16 hours) was in the range of 30 to 50%. Also, the “CyclinD1 Degradation (200 nM)” value in the assay with cyclin D1 is “B (protein percentage degradation <80%, and >=50%)”.

As to `CC(=O)c1c(C)c2cnc(Nc3ccc(N4CCN(CC(=O)NCCOCCOCCC(=O)Nc5ccccc5C(=O)Nc5cnc(C)nc5)CC4)cn3)nc2n(C2CCCC2)c1=O` [CPD-186, 2-(3-(2-(2-(2-(4-(6-((6-Acetyl-8-cyclopentyl-5-methyl-7-oxo-7,8-dihydropyrido[2,3-d]pyrimidin-2-yl)amino)pyridin-3-yl)piperazin-1-yl)acetamido)ethoxy)ethoxy)propanamido)-N-(2-methylpyrimidin-5-yl)benzamide], the inhibition at 0.2 µM on CDK4 (Calu-1 cells, 200 nM, 16 hours) lay in the range of 50 to 80%. The “CyclinD1 Degradation (200 nM)” value in the assay with cyclin D1 was “B (protein percentage degradation <80%, and >=50%)”.
